Reference: patent publication US6399625B1, “1-oxorapamycins” (Wyeth, priority 2000, dated 2002)
≈ marks a conversion by molar mass, not a printed value. Where two headings read alike, the source gives them in different places.

Experiments:
Format in all cases: cell-based
[1] = tested on: C. parapsilosis GC 3075; experiment: Antifungal activity, microtiter broth dilution MIC; details: 24-48 hours
Description: (§1) The antifungal activity for the 1-oxorapamycins of this invention was confirmed in a standard pharmacological test procedure which measured the ability of the compound being evaluated to inhibit fungal growth. 1-Oxorapamycin (Compound I), 1-oxorapamycin 42-ester with 3-hydroxy-2-(hydroxymethyl)-2-methylpropionic acid (Compound II), and 42-O-(2-hydroxy)ethyl 1-oxorapamycin (Compound III) were evaluated as representative compounds of this invention. The procedure used and results obtained are briefly described below. A 96 U-bottom microtiter plate was filled (50 μl/well) with RPMI 1640. The compounds to be evaluated were placed in appropriate wells, and serial diluted in successive wells to provide 11 dilutions. The concentrations ranged from 64 through 0.06 μg/ml. An adjusted inoculum of fungi (50 μl) was added to each well and the plates were incubated at 35° C. for 24-48 hours. […] Nystatin and rapamycin were used for the purpose of comparison.

[2] = tested on: C. parapsilosis GC 3074; experiment: Antifungal activity, microtiter broth dilution MIC; details: 24-48 hours
Description: as §1

[3] = tested on: C. krussii GC 3067; experiment: Antifungal activity, microtiter broth dilution MIC; details: RPMI 1640, 35° C., 24-48 hours
Description: as §1

[4] = tested on: A. niger GC 3091; experiment: Antifungal activity, microtiter broth dilution MIC; details: 24-48 hours
Description: as §1

[5] = tested on: A. niger GC 6591; experiment: Antifungal activity, microtiter broth dilution MIC; details: 24-48 hours
Description: as §1

[6] = tested on: C. lusitaniae GC 3068; experiment: Antifungal activity, microtiter broth dilution MIC; details: RPMI 1640, 35° C., 24-48 hours; for MIC: Clavispora lusitaniae
Description: as §1

[7] = tested on: C. pseudotropicalis 3070; experiment: Antifungal activity, microtiter broth dilution MIC; details: RPMI 1640, 35° C., 24-48 hours
Description: as §1

[8] = tested on: C. parapsilosis GC 3076; experiment: Antifungal activity, microtiter broth dilution MIC; details: 24-48 hours
Description: as §1

[9] = tested on: C. tropicalis GC 3080; experiment: Antifungal activity, microtiter broth dilution MIC; details: 24-48 hours
Description: as §1

[10] = tested on: C. albicans GC 3065; experiment: Antifungal activity, microtiter broth dilution MIC; details: 24-48 hours
Description: as §1

[11] = tested on: C. albicans GC 3064; experiment: Antifungal activity, microtiter broth dilution MIC; details: 24-48 hours
Description: as §1

[12] = tested on: A. fumigatus GC 3092; experiment: Antifungal activity, microtiter broth dilution MIC
Description: as §1

[13] = tested on: C. tropicalis GC 3081; experiment: Antifungal activity, microtiter broth dilution MIC; details: 24-48 hours
Description: as §1

[14] = tested on: C. albicans GC 3066; experiment: Antifungal activity, microtiter broth dilution MIC; details: 24-48 hours
Description: as §1

[15] = tested on: SH-SY5Y cells; experiment: Neuroregeneration activity, neurite outgrowth; details: aphidicolin pretreated, mean ± SEM
Source text: The neuroregeneration activity for the compounds of this invention was confirmed in a standard pharmacological test procedure by evaluating 1-oxo-rapamycin (Compound I) as representative compound of this invention, against SH-SY5Y cells in vitro [Gold et al., Exp Neurol 147: 269-278, 1997]. Briefly, SH-SY5Y cells were placed in 6-well plate treated with aphidicolin for 5 days followed by the test compounds using 6-well plates. For controls, wells were untreated, or treated with nerve growth factor (NGF) alone. Test wells were treated with NGF plus compound I or rapamycin. Cells were photographed at 168 hours. Analysis of neuritic lengths was performed on photographic prints using a Houston Instrument HI-PAD digitizing tablet connected to an IBM XT computer with appropriate software (Bioquant IV, R&M Biometrics, Nashville, Tenn.). Mean values for axonal areas were compared using by ANOVA (STATVIEW, Abacus Concepts, Inc., Berkeley, Calif. The following table summarizes the results that were obtained.

[16] = tested on: MDA-435 (breast) tumor cell line; experiment: Antineoplastic activity, tumor cell growth inhibition (sulforhodamine B); details: MDA435 cells, 48 hours
Source text: (§2) Antineoplastic activity for the compounds of this invention was confirmed by evaluating the antineoplastic activity of representative compounds of this invention (Compounds I-III) against six tumor cell lines in vitro. Briefly, tumor cells from six cell lines were placed in wells of a 96 well microtiter plate. The following tumor cell lines were used: 3T3 (ovarian), 3T3/H2N (ovarian—resistant to cis-platin), A431 (vulva epidermoid origin), SW620 (colon), SKBR3 (breast), and MDA-435 (breast). The tumors cells were grown in the presence of serial dilutions of the compound to be evaluated for 48 hours, and cell growth determined using a colorimetric procedure (sulforhrodamine B). The inhibition of growth was calculated compared to the number of cells at the time of test compound addition. Results are expressed as an IC50 (μg/ml); N/A indicates the compound was not evaluated against that cell line. The following IC50s was listed on Table 2.

[17] = tested on: SW620 (colon) tumor cell line; experiment: as above; details: Homo sapiens, SW-620, SW620 cells, 48 hours
Source text: as §2

[18] = tested on: SKBR3 (breast) tumor cell line; experiment: as above; details: Homo sapiens, SK-BR-3, SKBR3 cells, 48 hours
Source text: as §2

[19] = tested on: A431 (vulva epidermoid origin) tumor cell line; experiment: as above; details: Homo sapiens, A-431, A431 cells, 48 hours
Source text: as §2

[20] = tested on: 3T3 (ovarian) tumor cell line; experiment: as above; details: Mus musculus, NIH3T3, 3T3 cells, 48 hours
Source text: as §2

[21] = tested on: 3T3/H2N (ovarian—resistant to cis-platin) tumor cell line; experiment: as above; details: 3T3/H2N cells, 48 hours
Source text: as §2

With `C[C@@H]1[C@H](O)[C@@H](C)/C=C/C=C/CC/C=C/C=C/C=C/C=C/C(O[C@H]2O[C@H](C)[C@@H](O)[C@H](N)[C@@H]2O)CC2O[C@](O)(CC(O)C(O)CCC(O)CC(O)CC(O)CC(=O)O[C@H]1C)CC(O)C2C(=O)O` (some centres unmarked) [Nystatin, reference compound] as the compound, how does the “ANTIFUNGAL ACTIVITY (MIC)” value ([1]; RPMI 1640, 35° C.) read?
Its value is 0.50 µg/mL.

And the “ANTIFUNGAL ACTIVITY (MIC)” value ([2]; RPMI 1640, 35° C.)?
Its value is 1 µg/mL.

What about the “ANTIFUNGAL ACTIVITY (MIC)” value [3] of the same compound?
Its value is 1 µg/mL.

What about the “ANTIFUNGAL ACTIVITY (MIC)” value ([4]; RPMI 1640, 35° C.) of the same compound?
The value was 2 µg/mL.

What about the “ANTIFUNGAL ACTIVITY (MIC)” value ([5]; RPMI 1640, 35° C.) of the same compound?
The value was 2 µg/mL.

What about the “ANTIFUNGAL ACTIVITY (MIC)” value ([6]; C. lusitaniae GC 3068, first listing (r26)) of the same compound?
The value was 0.50 µg/mL.

What about the “ANTIFUNGAL ACTIVITY (MIC)” value ([6]; C. lusitaniae GC 3068, second listing (r28)) of the same compound?
Its value is 1 µg/mL.

What about the “ANTIFUNGAL ACTIVITY (MIC)” value [7] of the same compound?
The value was 0.50 µg/mL.

What about the “ANTIFUNGAL ACTIVITY (MIC)” value ([8]; RPMI 1640, 35° C.) of the same compound?
The value was 0.50 µg/mL.

What about the “ANTIFUNGAL ACTIVITY (MIC)” value ([9]; RPMI 1640, 35° C.) of the same compound?
Its value is 0.25 µg/mL.

And the “ANTIFUNGAL ACTIVITY (MIC)” value ([10]; RPMI 1640, 35° C.)?
Its value is 1 µg/mL.

And the “ANTIFUNGAL ACTIVITY (MIC)” value ([11]; RPMI 1640, 35° C.)?
Its value is 1 µg/mL.

And the “ANTIFUNGAL ACTIVITY (MIC)” value ([12]; A. fumigatus GC 3092, RPMI 1640, 35° C., 24-48 hours)?
The value was 1 µg/mL.

And the “ANTIFUNGAL ACTIVITY (MIC)” value ([13]; RPMI 1640, 35° C.)?
Its value is 1 µg/mL.

And the “ANTIFUNGAL ACTIVITY (MIC)” value ([14]; RPMI 1640, 35° C.)?
Its value is 1 µg/mL.

What does the source list for `CO[C@H]1C[C@@H]2CC[C@@H](C)[C@@](O)(O2)C(=O)C(=O)N2CCCC[C@H]2C(=O)O[C@H]([C@H](C)C[C@@H]2CC[C@@H](O)[C@H](OC)C2)CC(=O)[C@H](C)/C=C(\C)[C@@H](O)[C@@H](OC)C(=O)[C@H](C)C[C@H](C)/C=C/C=C/C=C/1C` [Rapamycin]?
MIC ([1]; Lodderomyces parapsilosis, GC3075, RPMI 1640, 35° C.): < 0.12 µg/mL; MIC ([2]; Lodderomyces parapsilosis, GC3074, RPMI 1640, 35° C.): 0.25 µg/mL (≈ 0.273 µM); MIC [3]: 4 µg/mL (≈ 4.38 µM); MIC ([4]; Aspergillus niger, GC3091, RPMI 1640, 35° C.): > 128 µg/mL; MIC ([5]; Aspergillus niger, GC6591, RPMI 1640, 35° C.): > 128 µg/mL; MIC ([6]; GC3068, C. lusitaniae GC 3068, first listing (r26), read-out: ANTIFUNGAL ACTIVITY (MIC)): < 0.12 µg/mL; MIC ([6]; GC3068, read-out: ANTIFUNGAL ACTIVITY (MIC), C. lusitaniae GC 3068, second listing (r28)): 0.5 µg/mL (≈ 0.547 µM); MIC ([7]; Kluyveromyces marxianus): < 0.12 µg/mL; MIC ([8]; Lodderomyces parapsilosis, GC3076, RPMI 1640, 35° C.): < 0.12 µg/mL; MIC ([9]; Candida tropicalis, GC3080, RPMI 1640, 35° C.): 0.25 µg/mL (≈ 0.273 µM); MIC ([10]; Candida albicans, GC3065, RPMI 1640, 35° C.): 0.5 µg/mL (≈ 0.547 µM); MIC ([11]; Candida albicans, GC3064, RPMI 1640, 35° C.): < 0.12 µg/mL; MIC ([12]; Aspergillus fumigatus, GC3092, read-out: ANTIFUNGAL ACTIVITY (MIC)): > 128 µg/mL; MIC ([13]; Candida tropicalis, GC3081, RPMI 1640, 35° C.): 0.25 µg/mL (≈ 0.273 µM); MIC ([14]; Candida albicans, GC3066, RPMI 1640, 35° C.): < 0.12 µg/mL; Mean Neurite Lengths after 168 h, Neurite Length ([15]; NGF plus test compound): 261.4 ± 13.1 μm; IC50 [16]: 1.3 µg/mL (≈ 1.42 µM); IC50 [17]: 2.3 µg/mL (≈ 2.52 µM); IC50 [18]: 0.87 µg/mL (≈ 0.952 µM); IC50 [19]: 1.9 µg/mL (≈ 2.08 µM); IC50 [20]: 0.48 µg/mL (≈ 0.525 µM); IC50 [21]: 1.7 µg/mL (≈ 1.86 µM)

Which “Mean Neurite Lengths after 168 h, Neurite Length” value ([15]; NGF alone (control)) does the source give for “NGF: nerve growth factor (NGF), control treatment alone and co-treatment in neurite test” here?
The value was 196.5 ± 7.7 μm.
